In ChEMBL document CHEMBL1146978 (Bioorg Med Chem Lett, 2006) one finds IC50 and Activity data, which are given here for nine molecules.

Each structure is given as a SMILES string. Where only a bound is given, the exact number is not on record here.

The target of assay [1] is Voltage-dependent calcium channel alpha2delta subunit (Sus scrofa, UniProt O77773). Put plainly: Displacement of [3H]gabapentin from alpha-2delta calcium channel in pig brain membrane. It is filed as cell membranes. (In a radioligand displacement assay an active substance lowers the binding of a labelled ligand.)
The subject of a further assay is Mus musculus. Put plainly: Anticonvulsant activity against DBA/2 mouse at 30 mg/kg, po 2 hrs post dose. Type of assay: functional.
A short description of assay [2]: Inhibition of [3H]leucine uptake at System L in CHO cells. Type of assay: cell-based.
The next assay concerns Rattus norvegicus. The assay is described as follows: Anxiolytic effect in rat at 30 mg/kg, po by Vogel water lick conflict assay assessed by ability to reverse shock-induced suppression of drinking. It is filed as functional.

Sequence of Voltage-dependent calcium channel alpha2delta subunit (O77773 whole entry): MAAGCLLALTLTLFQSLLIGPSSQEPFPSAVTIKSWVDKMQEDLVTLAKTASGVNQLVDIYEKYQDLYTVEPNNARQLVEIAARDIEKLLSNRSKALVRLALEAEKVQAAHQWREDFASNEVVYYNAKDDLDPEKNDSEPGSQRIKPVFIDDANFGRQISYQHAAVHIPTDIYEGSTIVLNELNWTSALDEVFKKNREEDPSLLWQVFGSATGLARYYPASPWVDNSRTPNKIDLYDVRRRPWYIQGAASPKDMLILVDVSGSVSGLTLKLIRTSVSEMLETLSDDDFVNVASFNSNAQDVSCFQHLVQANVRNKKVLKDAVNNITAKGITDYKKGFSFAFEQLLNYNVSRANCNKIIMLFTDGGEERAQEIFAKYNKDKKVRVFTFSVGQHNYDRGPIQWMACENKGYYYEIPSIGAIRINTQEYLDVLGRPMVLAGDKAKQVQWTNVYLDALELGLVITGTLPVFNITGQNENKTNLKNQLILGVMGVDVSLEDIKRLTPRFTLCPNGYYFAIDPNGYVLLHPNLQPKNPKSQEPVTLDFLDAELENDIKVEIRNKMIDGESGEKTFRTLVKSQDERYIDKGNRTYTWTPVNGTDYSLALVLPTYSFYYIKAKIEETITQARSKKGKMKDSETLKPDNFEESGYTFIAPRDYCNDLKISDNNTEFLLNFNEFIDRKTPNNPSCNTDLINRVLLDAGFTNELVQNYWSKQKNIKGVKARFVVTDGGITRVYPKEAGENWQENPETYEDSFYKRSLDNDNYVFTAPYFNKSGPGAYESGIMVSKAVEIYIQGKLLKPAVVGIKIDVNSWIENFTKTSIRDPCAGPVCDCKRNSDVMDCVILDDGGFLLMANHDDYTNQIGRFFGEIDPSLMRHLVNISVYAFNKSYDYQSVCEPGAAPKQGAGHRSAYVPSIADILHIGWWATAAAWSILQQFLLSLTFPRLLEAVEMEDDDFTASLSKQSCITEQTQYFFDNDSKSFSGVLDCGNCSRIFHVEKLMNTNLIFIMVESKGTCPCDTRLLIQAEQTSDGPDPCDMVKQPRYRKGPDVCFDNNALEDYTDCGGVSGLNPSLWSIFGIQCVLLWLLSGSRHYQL

One may read the IC50 as the concentration that gives 50% inhibition. As to `NCC(CC(=O)O)CC1CCOC1` (stereo not given), the concentration for half-maximal inhibition (IC50) in assay [1] is over 10000 µM. Also, the Activity in the assay with Mus musculus is recorded as 0%.

Turning to `NCC(CC(=O)O)Cc1ccccc1` (stereo not given), the half-maximal inhibitory concentration (IC50) in assay [1] was over 10000 µM. In addition, the Activity in the assay with Mus musculus turned out to be 0%.

Turning to `NC[C@H](CC(=O)O)Cc1ccco1`, the IC50 is 0.178 µM in assay [1] and 10 mM in assay [2]. For the same molecule, the Activity in the assay on Mus musculus was found to be 40%.

Consider `NCC(CC(=O)O)Cc1cccs1` (stereo not given), for which the IC50 in assay [1] was determined as 2.14 µM; in assay [2] it was 2.94 mM. The Activity in the assay with Mus musculus was found to be 40%; in the assay on Rattus norvegicus, 10.3%.

For `NC[C@@H](CC(=O)O)Cc1ccco1`, the half-maximal inhibitory concentration (IC50) in assay [1] stood at 1.46 µM; in assay [2], 10 mM. Also, the Activity in the assay with Mus musculus was 0%; with Rattus norvegicus it was 0.28%.

Turning to `NCC(CC(=O)O)Cc1ccoc1` (stereo not given), the half-maximal inhibitory concentration (IC50) in assay [1] came to 0.518 µM; in assay [2], 1.42 mM. Further, the Activity with Mus musculus was 0%; with Rattus norvegicus it was -17%.

`NCC(CC(=O)O)Cc1ccsc1` (stereo not given): the 50% inhibitory concentration (IC50) in assay [1] came to 0.832 µM; in assay [2], 7.03 mM. In addition, the Activity in the assay with Mus musculus was 60%; in the assay with Rattus norvegicus, -3%.

For `NCC(CC(=O)O)Cc1ccco1` (stereo not given), the half-inhibitory concentration (IC50) in assay [1] stood at 0.421 µM; in assay [2], 10 mM. For the same molecule, the values for the Activity in the assay on Mus musculus and in the assay on Rattus norvegicus were 20% and 5.3%, respectively.

Regarding `CC(C)C[C@H](CN)CC(=O)O` [PREGABALIN], the Activity in the assay with Mus musculus and in the assay with Rattus norvegicus was 100% in each case. Besides, in assay [2], the IC50 turned out to be 0.284 mM.
